The conditions of series [1]: in vitro experiments; cited from earlier work.
Series [2] can be described thus: 14 d stability at 37° C. of immunosuppressors in sterile bovine blood with vitamin E at different concentrations. The class given is physicochemical. As to conditions: for Decline of concentration (in words): vitamin E 1.0 mg/mL and 1.5 mg/mL.
Series [3] in a line: 14 d stability at 37° C. of immunosuppressors in the system suitability solution with different antioxidants (LC-MS/MS peak area). The format is physicochemical. To be noted: for Change of content (in words): not adding an antioxidant, system suitability solution and internal standard solution. The source says: (§1) Supernatant was taken and detected by high performance liquid chromatography-tandem mass spectrometry; and a spectrogram of the standard curve at the lowest point was shown in FIG. 1. Specific analysis conditions were as follows: gradient elution was used to an instrumental method; and the tandem mass spectrum: electrospray ionization (ESI) ion source and positive ion Multiple Reaction Monitoring (MRM) Mode were taken.
(§2) Antioxidants included 2,6-di-tert-butyl-p-cresol, vitamin E, vitamin C, β-carotene, and sodium metabisulfite.

A short description of series [4]: 14 d stability at 37° C. of isotope internal standards in the internal standard solution with different antioxidants (LC-MS/MS peak area). The class given is physicochemical.
Text: as §1, §2

Where [5] appears, read: 14 d at 37° C., vitamin E 0.5 mg/mL.
The mark [6] stands for this setting: 14 d at 37° C., vitamin E 1.0 mg/mL.
Setting [7] is: 14 d at 37° C., vitamin E 1.5 mg/mL.
Where [8] appears, read: 14 d at 37° C., antioxidant 2,6-di-tert-butyl-p-cresol.
[9] abbreviates: 14 d at 37° C., antioxidant Sodium metabisulfite.
[10] abbreviates: 14 d at 37° C., antioxidant Vitamin C.
Setting [11] is: 14 d at 37° C., antioxidant Vitamin E.
Where [12] appears, read: 14 d at 37° C., antioxidant β-carotene.
Setting [13] is: 14 d at 37° C., free of adding antioxidant.
[14] abbreviates: 14 d at 37° C., antioxidant P-carotene.

SMILES strings stand for the structures.

As to `C=CC[C@@H]1/C=C(\C)C[C@H](C)C[C@H](OC)[C@H]2O[C@@](O)(C(=O)C(=O)N3CCCC[C@H]3C(=O)O[C@H](/C(C)=C/[C@@H]3CC[C@@H](O)[C@H](OC)C3)[C@H](C)[C@@H](O)CC1=O)[C@H](C)C[C@@H]2OC` [Tacrolimus], the “Immunological competence relative to cyclosporine A” value in series [1] is reported as 50-100 times. Moreover, the Sample detection concentration in series [2] (setting [5]) was found to be 73.3 ng/mL; in series [2] (setting [6]), 80.1 ng/mL; in series [2] (setting [7]), 79.0 ng/mL; in series [2] (Initial values) it was 79.7 ng/mL. Also, the “Decline of concentration (in words)” value in series [2] (14 d at 37° C.) is on record as “no obvious decline”. In addition, the “Peak area of system suitability solution” value stood at 27771 in series [3] (setting [8]); 8044 in series [3] (setting [9]); 30470 in series [3] (setting [10]); 69879 in series [3] (setting [11]); 8659 in series [3] (setting [12]); 7408 in series [3] (setting [13]). The “Peak area of system suitability solution” value in series [3] (Initial values) stood at 74430. Also, in series [3] (14 d at 37° C.), the “Change of content (in words)” value was “almost dropped dramatically”.
On to `[2H][13C]([2H])=CC[C@@H]1/C=C(\C)C[C@H](C)C[C@H](OC)[C@H]2O[C@@](O)(C(=O)C(=O)N3CCCC[C@H]3C(=O)O[C@H](/C(C)=C/[C@@H]3CC[C@@H](O)[C@H](OC)C3)[C@H](C)[C@@H](O)C([2H])([2H])C1=O)[C@H](C)C[C@@H]2OC` [Tacrolimus-13C-d4, tacrolimus-13C-d4], for which the “Peak area of internal standard solution” value in series [4] (setting [8]) was determined as 28579; in series [4] (setting [14]), 5494; in series [4] (setting [9]), 5764; in series [4] (setting [10]) it was 25618; in series [4] (setting [11]) it was 53397; in series [4] (setting [13]) it was 6069. The “Peak area of internal standard solution” value in series [4] (Initial values) was found to be 60178.
In series [2] (setting [5]), `CO[C@H]1C[C@@H]2CC[C@@H](C)[C@@](O)(O2)C(=O)C(=O)N2CCCC[C@H]2C(=O)O[C@H]([C@H](C)C[C@@H]2CC[C@@H](OCCO)[C@H](OC)C2)CC(=O)[C@H](C)/C=C(\C)[C@@H](O)[C@@H](OC)C(=O)[C@H](C)C[C@H](C)/C=C/C=C/C=C/1C` [Everolimus] showed a Decrease of concentration of 22.5%. For the same compound, the Sample detection concentration in series [2] (setting [5]) worked out at 62.1 ng/mL; in series [2] (setting [6]) it was 75.3 ng/mL; in series [2] (setting [7]), 75.7 ng/mL; in series [2] (Initial values) it was 80.1 ng/mL. Besides, the “Decline of concentration (in words)” value in series [2] (14 d at 37° C.) is on record as “no obvious decline”. Further, the “Peak area of system suitability solution” value came out at 3533 in series [3] (setting [8]); 6256 in series [3] (setting [9]); 11782 in series [3] (setting [10]); 98290 in series [3] (setting [11]); 3599 in series [3] (setting [12]); 2401 in series [3] (setting [13]). In addition, the “Peak area of system suitability solution” value in series [3] (Initial values) came out at 111146. The “Change of content (in words)” value in series [3] (14 d at 37° C.) is listed as “almost dropped dramatically”.
For the compound `[2H]C([2H])([2H])O[C@H]1C[C@@H]2CC[C@@H](C)[C@@](O)(O2)C(=O)C(=O)N2CCCC[C@H]2C(=O)O[C@H]([C@H](C)C[C@@H]2CC[C@@H](O)[C@H](OC)C2)CC(=O)[C@H](C)/C=C(\C)[C@@H](O)[C@@H](OC)C(=O)[C@H](C)C[C@H](C)/C=C/C=C/C=C/1C` [Sirolimus-d3, sirolimus-d3], the “Peak area of internal standard solution” value worked out at 7033 in series [4] (setting [8]); 3308 in series [4] (setting [14]); 5301 in series [4] (setting [9]); 6664 in series [4] (setting [10]); 62889 in series [4] (setting [11]); 3768 in series [4] (setting [13]). In addition, the “Peak area of internal standard solution” value in series [4] (Initial values) turned out to be 71424.

(Values after patent publication US12135333B2, “Detection kit for detecting immunosuppressors in whole blood by high performance liquid chromatography-tandem mass spectrometry and detection method thereof” (Hangzhou Calibra Diagnostics Co., Ltd., priority 2021, dated 2024).)
